Test results published in PMC12876990, “Targeting secreted PLA2 interactions with EGFR and vimentin to arrest prostate tumour growth” (Cell Death & Disease, 2025).
Square brackets hold non-standard residues; d marks the D form. Peptide text beside a SMILES is read from it. 2Nal = N[C@@H](Cc1ccc2ccccc2c1)C(=O)O

What was measured:
[1] = Pharmacokinetics of c2 after oral administration to Sprague Dawley rats (LC MS/MS); assay type: in vivo; details: 100 mg/kg po
Experimental: Rat studies were performed under contract to the accredited animal research establishment ICP Firefly Pty Ltd. (Alexandria, NSW, Australia; Ref. No AW96/042, NSW Dep’t Primary Industries) with ethics approval from the ICP Firefly animal ethics committee. Briefly, male rats (Sprague Dawley, n = 5 / group) were treated with c2 (single dose 100 mg/kg suspended in 0.1% carboxymethylcellulose, po) and housed in metabolic cages. Animals were sacrificed at 1, 2, 8 or 24 h, blood and tissue samples taken for further analysis, with urine and faeces collected for 1, 6 and 16 hours respectively. Following extraction, c2 concentration in plasma was measured using a validated LC MS/MS assay (limit of detection 7.5 ng/mL and lower limit of quantitation 15 ng/mL in plasma, accuracy 98% and imprecision 12.7% at […]).

[2] = 28-day oral toxicity study: functional observation; assay type: in vivo, male Sprague Dawley rats; details: for Grip strength (mean) Forelimb / Grip strength (mean) Hind limb: week 4
Experimental: 3.6. Procedure for test item administration […]
intragastric cannula attached to a 3 mL syringe.
3.7. Observation of animals […]
groups: Day 29; recovery groups: Day 43).
(§1) (Appendix C Study Data Spreadsheets). […]
report (Appendix C Study Data Spreadsheets). […]
3.7.5. Functional observation […]
s upine drop, grip strength test. […]

[3] = 28-day oral toxicity study: histopathology; assay type: in vivo, male Sprague Dawley rats; details: Gr 3, 20 mg/kg vs Gr 1
Experimental: organs. Tissues and carcas ses were placed in 10% formalin. The tissues to be processed for histopathological examinations were fixed for at least 48 hours prior to cassette preparation.
The organ weights and gross pathology changes a re included in a spreadsheet as an appendix to the report (Appendix C Study Data Spreadsheets).
3.12. Tissue proces sing / Slide preparation
The tissues were placed in labelled cassette s and placed in an automated tissue processor and taken through several stages of alcohol dehydration, solvent clearing and wax infiltration.
Infiltrated tissues were embedded in wax blo ck s, which were sectioned on a microtome at between 4 and 6 µm. Sections were placed on pre-labelled glass slides and stained with haematoxylin and eo sin (H&E). Stained section s were dehydrated, then solvent cl eared and […]
Histopathological examinations were p erformed on all animals in the vehicle control and high dose treated groups (main study) on the following tissues/organs: adrenal glands, bone marrow, brain, epididymis, heart, kidney, liver, lung, lymph node: mesenteric, prostate, seminal v esicle s with coagulating glands, small and l arge intesti ne (including Peyer’s patches), spinal cord, spleen, stomach, thymus, thyroid gland, trachea, testes and urinary bladder. Slides were evaluated for histology change s under light microscopy at a magnification of 100 to 1000 times.
Individual histopathology results and a summar y are attached a s an app endix to the report (Appendix E Histopathology).
3.14. Statistical analyses
Clinical observations, detailed clinical observations, functional observations, blood and urine analyses and histopathology were summarised by descriptive analysis.
Statistical analyses, consisting of unpaired t-tests, were performed on measured variables: percentage body weight gain s, food consumption and organ weights as a percentage of body weight. A significance level of P < 0.05 was used for all tests.
St Geo rge C lini c al S chool

[4] = Pharmacokinetics of tritiated cF and c2 in BALB/c mice; assay type: in vivo
Experimental: All animal studies were performed according to the guidelines for the ethical use of animals published by the National Health and Medical Research Council of Australia. Mouse pharmacokinetic studies were conducted with approval from the Garvan Institute Animal Ethics Committee (approval #02/21). cF and c2 were radioactively labelled with tritium by catalytic saturation of peptide analogues containing dehydroleucine (Sibtech Inc.), yielding high specific activity (50–60 Ci/mmol) peptides. Their identity was confirmed by three separate analytical methods prior to delivery. Mice (BALB/c, n = 4 per timepoint) were administered a single dose of peptide by the routes and times indicated. Animals were then exsanguinated by cardiac puncture under halothane anaesthesia followed by cervical dislocation. Tissues and plasma were stored at −80 °C prior to analysis. For plasma, a known volume of plasma was added to liquid scintillant (Ultima Gold, Perkin Elmer). For tissues, a known amount of tissue (50–100 mg) was incubated in NaOH (1 mL, 1 M) overnight at room temperature. The solutions were then bleached with disodium EDTA (100 µl, 0.1%) and hydrogen peroxide (300 µl, 30%) and incubated at 50 °C for one hour. The peptide content of plasma and tissues was determined by liquid scintillation counting. The stability of the peptides following administration to animals was evaluated by thin-layer chromatography of tissue-extracted peptide relative to peptide prior to injection (Fig. S2c).

[5] = 28-day oral toxicity study: biochemistry analysis; assay type: in vivo, male Sprague Dawley rats
Experimental: Blood analyse s (haematology and biochemistry) w ere performed on all animals on Day 29 (main groups) or Day 43 (recovery groups). Approximately 4 mL of blood was taken from ea ch animal by cardiac puncture using a 10 mL syringe and 21-gauge needle. The procedure involved anaesthetising by intraperitoneal injection of sodi um pentobarbitone using a 2 mL sterile plastic syringe attached to a 26-gauge needle (Terumo).
For each blood sampling, the blood was divided into two aliquots: (i) one was placed into a tube containing EDTA (for whole blood and EDTA plasma), (ii) one aliquot into a Li-heparin tube. […]
Results and methods of analysis were attached in an appendix to the report (Appendix D Haematology and Biochemistry). Blood smear s for cell morphology were prepared. […]
3.9.2. Biochemistry analysis
The following parameters were analysed: glucose (Glu), urea, creatinine (Creat), total protein (TP), albumin (ALB), albumin/globulin ratio (A:G), total bilirubin (TBil), alkaline phosphatase (ALP), aspartate aminotransferase (AST), alanine aminotransferase (ALT), creatine kinase (CK), chole sterol (Chol), calcium (Ca), phosphate (Phos), Ca:P ratio, sodium (Na), potassium (K), Na:K ratio, chloride (Cl), globulin (Glob), gamma glutamyl transferase (GGT) and triglycerides (Trig).
Haematology and Biochemistry). […]
as §1

[6] = Day 43, Gr 5 recovery, 20 mg/kg

CC(C)C[C@@H]1NC(=O)[C@H](Cc2ccc3ccccc3c2)NC(=O)[C@H](CCCNC(=N)N)NC(=O)[C@H](Cc2ccc3ccccc3c2)NC(=O)[C@H](CO)NC1=O [c2, cyclo-((2-Nal)-Leu-Ser-(2-Nal)-Arg)] (cyclo([2Nal]LS[2Nal]R))
distribution after oral dosing [1]: presence in the plasma, kidney and liver | excretion [1]: majority excreted in faeces | time of peak in urine [1]: 2 h | functional observations tests ([2]; Week 4): no effect | Grip strength (mean) Forelimb ([2]; Gr 2, 1 mg/kg): 487 ± 33.0 | Grip strength (mean) Hind limb ([2]; Gr 2, 1 mg/kg): 59 ± 3.2 | Grip strength (mean) Forelimb ([2]; Gr 3, 20 mg/kg): 458 ± 39.9 | Grip strength (mean) Hind limb ([2]; Gr 3, 20 mg/kg): 57 ± 2.5 | Grip strength (mean) Forelimb ([2]; Gr 5, 20 mg/kg): 456 ± 47.2 | Grip strength (mean) Hind limb ([2]; Gr 5, 20 mg/kg): 61 ± 3.8 | histopathology: large intestine: colon [3]: No treatment-related differences | histopathology: liver [3]: No treatment-related differences | histopathology: small intestine: ileum [3]: No treatment-related differences | histopathology: stomach [3]: No treatment-related differences | oral bioavailability (in words) ([4]; sc and po administration): orally bioavailable | oral bioavailability relative to sc delivery (AUC analysis) ([4]; tritiated peptide 5 mg/kg, po vs sc, at 16 hours): ~ 10% | ALT (serum alanine transaminase) ([5]; 1 mg/kg): 61.1 ± 15.53 IU/L | CK (serum creatine kinase) ([5]; 1 mg/kg): 164 ± 47.4 IU/L | K (serum potassium) ([5]; 1 mg/kg): 3.59 ± 0.137 mM | Na/K ratio ([5]; 1 mg/kg): 40.5 ± 1.59 | ALT (serum alanine transaminase) ([5]; 20 mg/kg): 64.7 ± 19.01 IU/L | CK (serum creatine kinase) ([5]; 20 mg/kg): 140 ± 34.4 IU/L | K (serum potassium) ([5]; 20 mg/kg): 3.66 ± 0.295 mM | Na/K ratio ([5]; 20 mg/kg): 39.9 ± 3.16 | ALP ([5]; Day 29, Gr 2, 1 mg/kg): 219 ± 37.4 IU/L | AST ([5]; Day 29, Gr 2, 1 mg/kg): 173 ± 69.4 IU/L | CK ([5]; Day 29, Gr 2, 1 mg/kg): 164 ± 47.4 IU/L | Na ([5]; Day 29, Gr 2, 1 mg/kg): 145 ± 0.7 mmol/L | ALP ([5]; Day 29, Gr 3, 20 mg/kg): 234 ± 35.7 IU/L | ALT ([5]; Day 29, Gr 3, 20 mg/kg): 64.7 ± 19.01 IU/L | AST ([5]; Day 29, Gr 3, 20 mg/kg): 163 ± 76.8 IU/L | CK ([5]; Day 29, Gr 3, 20 mg/kg): 140 ± 34.4 IU/L | Na ([5]; Day 29, Gr 3, 20 mg/kg): 145 ± 0.8 mmol/L | ALP [5, 6]: 144 ± 24.2 IU/L | ALT [5, 6]: 62 ± 20.2 IU/L | AST [5, 6]: 236 ± 106.7 IU/L | CK [5, 6]: 117 ± 36.0 IU/L | Na [5, 6]: 144 ± 0.4 mmol/L | TP [5, 6]: 62 ± 1.7 g/L | Cl ([5]; rat, in vivo, 1 mg/kg): 101 ± 1.2 mmol/L
